Assay results from patent US5807535A, “Metal complexes of hydroxyaryl containing aminocarboxylic acid chelating agents” (Australian Nuclear Science & Technology Organisation, priority 1992, dated 1998).

Experiment: Effect of pH on complexation of 99mTc with ligand (5)
Type: physicochemical
Method: Radiolabelling with ^99m Tc was investigated over a range of pHs (3.0-10.0) (described in Table B). To ligand (5) (1.0 ml:1 mg/ml) dissolved in appropriate buffer was added an excess of stannous chloride (20 μl:2 mg/ml) in 0.1 N HCl. To this mixture is added an appropriate activity of ^99m TcO4 (20 μl) eluted from a technetium generator.
All reactions were carried out at room temperature.
Percent complexation was monitored by ITLC-SG using two solvent systems. […]

complexation (99mTc, pH 10.0): poor | stability of product (99mTc, pH 10.0): unstable | stability of final product (stable for upto) (99mTc, pH range 3.0-9.0): ≤ 2 h | optimum pH of complexation (99mTc, room temperature): 3.0-4.0 pH | Percent 99mTc complexed (pH 3, 1 min): 89% | Percent 99mTc complexed (pH 3, 3 min): 93% | Percent 99mTc complexed (pH 3, 5 min): 90% | Percent 99mTc complexed (pH 3, 10 min): 91% | Percent 99mTc complexed (pH 3, 15 min): 90% | Percent 99mTc complexed (pH 3, 30 min): 92% | Percent 99mTc complexed (pH 3, 1 h): 92% | Percent 99mTc complexed (pH 3, 2 h): 94% | Percent 99mTc complexed (pH 4, 1 min): 94% | Percent 99mTc complexed (pH 4, 3 min): 97% | Percent 99mTc complexed (pH 4, 5 min): 92% | Percent 99mTc complexed (pH 4, 10 min): 94% | Percent 99mTc complexed (pH 4, 15 min): 96% | Percent 99mTc complexed (pH 4, 30 min): 91% | Percent 99mTc complexed (pH 4, 1 h): 100% | Percent 99mTc complexed (pH 4, 2 h): 100% | Percent 99mTc complexed (pH 5, 1 min): 84% | Percent 99mTc complexed (pH 5, 3 min): 83% | Percent 99mTc complexed (pH 5, 5 min): 91% | Percent 99mTc complexed (pH 5, 10 min): 83% | Percent 99mTc complexed (pH 5, 15 min): 81% | Percent 99mTc complexed (pH 5, 30 min): 71% | Percent 99mTc complexed (pH 5, 1 h): 85% | Percent 99mTc complexed (pH 5, 2 h): 88% | Percent 99mTc complexed (pH 6, 1 min): 80% | Percent 99mTc complexed (pH 6, 3 min): 80% | Percent 99mTc complexed (pH 6, 5 min): 83% | Percent 99mTc complexed (pH 6, 10 min): 80% | Percent 99mTc complexed (pH 6, 15 min): 82% | Percent 99mTc complexed (pH 6, 30 min): 90% | Percent 99mTc complexed (pH 6, 1 h): 85% | Percent 99mTc complexed (pH 6, 2 h): 91% | Percent 99mTc complexed (pH 7, 1 min): 73% | Percent 99mTc complexed (pH 7, 3 min): 83% | Percent 99mTc complexed (pH 7, 5 min): 81% | Percent 99mTc complexed (pH 7, 10 min): 74% | Percent 99mTc complexed (pH 7, 15 min): 87% | Percent 99mTc complexed (pH 7, 30 min): 80% | Percent 99mTc complexed (pH 7, 1 h): 83% | Percent 99mTc complexed (pH 7, 2 h): 52% | Percent 99mTc complexed (pH 8, 1 min): 76% | Percent 99mTc complexed (pH 8, 3 min): 88% | Percent 99mTc complexed (pH 8, 5 min): 81% | Percent 99mTc complexed (pH 8, 10 min): 83% | Percent 99mTc complexed (pH 8, 15 min): 87% | Percent 99mTc complexed (pH 8, 30 min): 85% | Percent 99mTc complexed (pH 8, 1 h): 77% | Percent 99mTc complexed (pH 8, 2 h): 81% | Percent 99mTc complexed (pH 9, 1 min): 90% | Percent 99mTc complexed (pH 9, 3 min): 100% | Percent 99mTc complexed (pH 9, 5 min): 94% | Percent 99mTc complexed (pH 9, 10 min): 86% | Percent 99mTc complexed (pH 9, 15 min): 100% | Percent 99mTc complexed (pH 9, 30 min): 83% | Percent 99mTc complexed (pH 9, 1 h): 85% | Percent 99mTc complexed (pH 9, 2 h): 74% | Percent 99mTc complexed (pH 10, 1 min): 15% | Percent 99mTc complexed (pH 10, 3 min): 16% | Percent 99mTc complexed (pH 10, 5 min): 11% | Percent 99mTc complexed (pH 10, 10 min): 13% | Percent 99mTc complexed (pH 10, 15 min): 9% | Percent 99mTc complexed (pH 10, 1 h): 8% | Percent 99mTc complexed (pH 10, 2 h): 8%
Structure (SMILES): Nc1ccc(O)c(NC(=O)CN(CCN(CC(=O)O)CC(=O)Nc2cc(N)ccc2O)CC(=O)O)c1 [Compound 5]
